Assay results reported in US12685320B2, “Food processing oxidation treatment forumlations and methods” (Clean Chemistry, Inc., priority 2023, dated 2026).

Key:
[1] = tested on: Salmonella spp.; assay: Poultry chiller tank (pre-chiller and red water main chiller): Salmonella on inoculated poultry thighs; assay type: cell-based, S. Infantis, S. Typhimurium, S. Enteritidis; conditions: for Recovered average Log10 CFU/g: pH>8.5
Procedure: (§1) A standardized test was conducted to compare the antimicrobial efficacy, residual decay, and effect on solution pH of peracetate and peracetic acid in reducing Salmonella spp. on poultry as a processing method directed to control microbial growth or inactivate microorganisms in food products during processing to lower risk of foodborne pathogens or spoilage microorganisms. The objective of this study was to determine the efficacy of peracetate and peracetic acid treatments for reducing Salmonella spp. on poultry thighs in a treatment bath under conditions simulating pre-chiller and red water main chiller applications. To mimic these applications in a poultry processing facility, target concentrations were determined to be 150 ppm of either peracetate (as PAA equivalents) or peracetic acid in the simulated pre-chiller application and 75 ppm of either peracetate (as PAA equivalents) or peracetic acid in the simulated red water main chiller application. Both applications targeted a pH>8.5 to simulate the intentional alkalinity of chillers in poultry processing facilities.
(§2) The pH, temperature, and residual antimicrobial concentration (measured as either peracetate or peracetic acid) were monitored through the duration of both applications. […]
The inoculum used in this study was prepared from three reference strains of Salmonella: S. Infantis (Reference Strain ID: ATCC 51741), S. Typhimurium (Reference Strain ID: ATCC 13311), and S. Enteritidis (Reference Strain ID: ATCC 13076). […] Colonies from each strain were placed into individual tubes of buffered peptone water (BPW) determined using a spectrophotometer (ThermoFisher Scientific, 1700/0512). […] Post incubation, colonies were counted, and log transformed reported. […]
Prior to inoculation, the average weight of the poultry thighs used in this study was determined to be 150 grams. […]

[2] = Poultry chiller tank: residual decay and odor of antimicrobial baths; assay type: physicochemical
Procedure: as §1, with “Both applications targeted a pH>8.5 to simulate the intentional alkalinity of chillers in poultry processing facilities.” left out
as §2
During the pre-chiller and main chiller treatments, the temperature, pH, and antimicrobial concentrations were monitored and recorded every 10 minutes. […] After incubating, colonies were counted, and log transformed.

## CC(=O)OO [peracetic acid]
[1]; main chiller treatment (after pre-chiller), target 75 ppm, untreated main chiller control 4.13
  Recovered average Log10 CFU/g: 3.45 Log10 CFU/g
[1]; pre-chiller and main chiller
  difference in antimicrobial effectiveness of peracetic acid and peracetate: No significant difference
[1]; pre-chiller treatment, target 150 ppm, untreated 5.46, untreated pre-chiller control 4.76
  Recovered average Log10 CFU/g: 3.65 Log10 CFU/g
[2]; pre-chiller application
  additional antimicrobial required to maintain minimum concentration: 13.0 mL
[2]; red water main chiller application
  additional antimicrobial required to maintain minimum concentration: 26.0 mL
